The values that follow come from patent US11407765B2, “Tetracyclic heteroaryl compounds” (AstraZeneca AB, priority 2018, dated 2022).

In series [1] the target is T1, KRasG12C (Homo sapiens, UniProt P01116, G12C).
T1 construct: biotin (biotinylated); made in house
Nature of the series: KRasG12C mass spectrometry adducting assay. In kind it is binding. Conditions: 10 μM test compound, 4 μM GDP loaded KRasG12C, 4 hours. As to the method:
KRasG12C Mass Spectrometry Adducting Assay
Enzyme solutions were prepared in assay buffer containing 20 mM HEPES (pH 7.5), 5 mM MgCl2, and 150 mM NaCl. […] The plate was sealed before reading on a Xevo G2 QTOF (Waters) and Acquity LC system (Waters). 10 μl of sample was injected onto a Xbridge BEH300; C4; 3.5 um; 2.1×50 mm column (Waters) running a 3 minute gradient. Blank samples were run in between each test sample.
Data was analysed in Mass Lynx software (Waters), the Total ion count (TIC) trace was used and the eluted protein peak data combined. Using the combined spectrum the data was deconvoluted using MaxEnt1 method. The peak area for apo-protein KRas^G12C (APO) and KRAS+relative cmpd mass (adduct) were measured, and a percentage adduct was calculated using the following calculation: Percent adduct=100*(area of adduct peak/(sum of APO+adduct peaks)

For series [2], the target named is T1, KRasG12C. Nature of the series: KRasG12C functional assay (HTRF, SOS-mediated nucleotide exchange / Raf RBD binding). In kind it is biochemical. Conditions: 4 hrs incubation with GDP loaded biotinylated KRasG12C, single experiment or average of two or more. As to the method:
KRasG12C Functional Assay
All enzyme and substrate solutions were prepared in assay buffer containing 20 mM HEPES (pH 7.5), 5 mM MgCl2, 150 mM NaCl, and 0.01% Tween 20. […] In a separate mix 20 nM GST-Raf Ras binding domain (GST-Raf RBD, purified in house) and 4 μg/ml anti-GST XL665 antibody (Cisbio) was prepared in assay buffer containing 50 mM Potassium Fluoride and 0.05 mg/ml BSA and equilibrated for 4 hours before adding 0.6 μM Guanosine 5′-[γ-thio]triphosphate (GTPγS, Sigma) and 0.08 μM SOS (purified in house). 5 μl of the GST-RAF RBD mix was then dispensed into each well of the assay plate. […] This is detected simultaneously via the specific binding interaction between active GTPγS KRas^G12C with GST-Raf RBD which brings the europium and XL665 into close proximity enabling an increased FRET signal to be detected on a Pherastar (BMG) plate reader equipped with the HTRF filter module. […] IC50 values were calculated from normalised dose-response response FRET data curve fitted in Genedata screener (Basel, Switzerland).
On the technique in general: TR-FRET usually uses a lanthanide donor and a delayed reading to cut background.

Series [3] can be described thus: Caco AB cell permeability. Format: in vitro ADME. Conditions: human, Caco-2; A to B. (Caco-2 cells form a polarised layer with tight junctions and transporters.)
A short description of series [4]: In vivo pharmacokinetics in rat (oral bioavailability, clearance).
A further series is described as follows: Half life in rat blood. Format: in vitro ADME.
Setting [5] is: read-out: KRasG12C functional assay IC50 value.
[6] abbreviates: KRasG12C functional assay IC50 value.

Structures are written as SMILES. Like-named read-outs stand apart in the source and are kept apart here.

T1 sequence (P01116 1-188 isoform P01116-2 G12C): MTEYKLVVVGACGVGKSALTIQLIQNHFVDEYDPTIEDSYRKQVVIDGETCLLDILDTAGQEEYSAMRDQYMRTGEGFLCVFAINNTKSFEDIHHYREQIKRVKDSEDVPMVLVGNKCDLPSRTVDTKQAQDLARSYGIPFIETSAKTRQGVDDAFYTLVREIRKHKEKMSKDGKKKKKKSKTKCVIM

On to `C=CC(=O)N1C[C@H]2COc3c(Cl)c(-c4c(O)cccc4F)c(F)c4ncnc(c34)N2C[C@H]1C` (single isomer, unassigned) [Example 4], for which, on KRasG12C [1], the “KRasG12C M. S. Binding Mean adduct %” value was 96%. Besides, on KRasG12C [2] (setting [5]), the IC50 came to 50 nM. This molecule also showed a Papp A→B in series [3] of 58 ×10⁻⁶ cm/s. The molecule also had an oral bioavailability in series [4] of 31%. In series [4] (in vivo), this molecule returned a clearance of 29 mL/min/kg.

`C=CC(=O)N1CCN2c3ncnc4c(F)c(-c5c(C)ccc6cc[nH]c(=O)c56)c(Cl)c(c34)OC[C@@H]2C1` (single isomer, unassigned) [Example 16]: the “KRasG12C M. S. Binding Mean adduct %” value at KRasG12C [1] is 91%. Moreover, the IC50 at KRasG12C [2] (setting [5]) came to 10 nM.

As for `C=CC(=O)N1CCN2c3ncnc4c(F)c(-c5c(C)ccc6cc[nH]c(=O)c56)c(Cl)c(c34)OC[C@@H]2C1` (single isomer, unassigned) [Example 17], the “KRasG12C M. S. Binding Mean adduct %” value on KRasG12C [1] worked out at 30%. Moreover, the IC50 on KRasG12C [2] (setting [5]) was determined as 373 nM.

`C=CC(=O)N1CCN2c3ncnc4c(F)c(-c5c(C)ccc6[nH]nnc56)c(Cl)c(c34)OC[C@@H]2C1` (single isomer, unassigned) [Example 18]: the “KRasG12C M. S. Binding Mean adduct %” value at KRasG12C [1] is recorded as 25%. The IC50 on KRasG12C [2] (setting [5]) was determined as 239 nM.

As to `C=CC(=O)N1CCN2c3ncnc4c(F)c(-c5c(C)ccc6[nH]nnc56)c(Cl)c(c34)OC[C@@H]2C1` (single isomer, unassigned) [Example 19], on KRasG12C [1], the “KRasG12C M. S. Binding Mean adduct %” value worked out at 94%. Further, the IC50 at KRasG12C [2] (setting [5]) was 24 nM.

Consider `C=CC(=O)N1CCN2c3ncnc4c(F)c(-c5c(F)ccc6[nH]cnc56)c(Cl)c(c34)OC[C@@H]2C1` (single isomer, unassigned) [Example 20], for which the “KRasG12C M. S. Binding Mean adduct %” value on KRasG12C [1] amounted to 100%. Also, the IC50 on KRasG12C [2] (setting [5]) is 29 nM.

As to `C=CC(=O)N1CCN2c3ncnc4c(F)c(-c5c(F)ccc6[nH]ncc56)c(Cl)c(c34)OC[C@@H]2C1` (single isomer, unassigned) [Example 22], the “KRasG12C M. S. Binding Mean adduct %” value at KRasG12C [1] is reported as 95%. The IC50 at KRasG12C [2] (setting [5]) came to 30 nM.

For `C=CC(=O)N1CCN2c3ncnc4c(F)c(-c5c(F)ccc6c5ncn6C)c(Cl)c(c34)OC[C@@H]2C1` (single isomer, unassigned) [Example 24], the “KRasG12C M. S. Binding Mean adduct %” value on KRasG12C [1] is 99%. Besides, on KRasG12C [2] (setting [5]), the concentration for half-maximal inhibition (IC50) worked out at 97 nM.

As for `C=CC(=O)N1CCN2c3ncnc4c(F)c(-c5c(F)ccc6[nH]nnc56)c(Cl)c(c34)OC[C@@H]2C1` (single isomer, unassigned) [Example 26], the “KRasG12C M. S. Binding Mean adduct %” value on KRasG12C [1] worked out at 100%. Also, at KRasG12C [2] (setting [5]), the IC50 came out at 51 nM.

With `C=CC(=O)N1CCN2c3ncnc4c(F)c(-c5c(F)ccc6cc[nH]c(=O)c56)c(Cl)c(c34)OC[C@@H]2C1` (single isomer, unassigned) [Example 28], the “KRasG12C M. S. Binding Mean adduct %” value on KRasG12C [1] was 92%. Also, at KRasG12C [2] (setting [5]), the IC50 stood at 5 nM.

On to `Cc1ccc2[nH]ncc2c1-c1c(Cl)c2c3c(ncnc3c1F)N1CCN(C(=O)/C=C/CN(C)C)C[C@H]1CO2` (single isomer, unassigned) [Example 30], for which, at KRasG12C [1], the “KRasG12C M. S. Binding Mean adduct %” value is reported as 94%. Besides, the IC50 on KRasG12C [2] (setting [5]) came out at 170 nM.

`C=CC(=O)N1C[C@@H]2CCOc3c(Cl)c(-c4c(O)cccc4F)c(F)c4ncnc(c34)N2C[C@H]1C` (single isomer, unassigned) [Example 39]: at KRasG12C [2] (setting [6]), the IC50 turned out to be 3 nM. Further, in series [3], the apparent permeability from apical to basolateral (Papp A→B) is 72 ×10⁻⁶ cm/s. Moreover, in series [4], the “clearance (Cl)” value came to 22 mL/min/kg and the oral bioavailability was determined as 75%.

With `C=CC(=O)N1C[C@@H]2CCOc3c(Cl)c(-c4c(O)cccc4F)c(F)c4ncnc(c34)N2C[C@@H]1C` (single isomer, unassigned) [Example 42], at KRasG12C [1], the “KRasG12C M. S. Binding Mean adduct %” value amounted to 95.528%. Moreover, at KRasG12C [2] (setting [6]), the IC50 was found to be 111 nM.

Consider `C=CC(=O)N1C[C@H]2COc3c(Cl)c(-c4c(O)cccc4F)c(F)c4ncnc(c34)N2C[C@@H]1C` [Example 3, 1-[(8aS,11S)-6-Chloro-4-fluoro-5-(2-fluoro-6-hydroxyphenyl)-11-methyl-8a,9,11,12-tetrahydropyrazino[2′,1′:3,4][1,4]oxazepino[5,6,7-de]quinazolin-10(8H)-yl]prop-2-en-1-one], for which the “KRasG12C M. S. Binding Mean adduct %” value on KRasG12C [1] worked out at 54%. On KRasG12C [2] (setting [5]), the IC50 is 113 nM.

On to `C=CC(=O)N1CCN2c3ncnc4c(F)c(-c5cccc6cc[nH]c(=O)c56)c(Cl)c(c34)OC[C@@H]2C1` [Example 10, 8-[(8aS)-6-Chloro-4-fluoro-10-(prop-2-enoyl)-8,8a,9,10,11,12-hexahydropyrazino[2′,1′:3,4][1,4]oxazepino[5,6,7-de]quinazolin-5-yl]isoquinolin-1(2H)-one], for which the “KRasG12C M. S. Binding Mean adduct %” value at KRasG12C [1] came out at 94%. The IC50 on KRasG12C [2] (setting [5]) was 68 nM.

For `C=CC(=O)N1CCN2c3ncnc4c(F)c(-c5n[nH]c6ccccc56)c(Cl)c(c34)OC[C@@H]2C1` [Example 11, 1-[(8aS)-6-Chloro-4-fluoro-5-(1H-indazol-3-yl)-8a,9,11,12-tetrahydropyrazino[2′,1′:3,4][1,4]oxazepino[5,6,7-de]quinazolin-10(8H)-yl]prop-2-en-1-one], on KRasG12C [1], the “KRasG12C M. S. Binding Mean adduct %” value is 96%. The IC50 on KRasG12C [2] (setting [5]) amounted to 201 nM.

`C=CC(=O)N1CCN2c3ncnc4c(F)c(-c5c(O)cccc5F)c(Cl)c(c34)OC[C@@H]2C1` [R^5 desmethyl compound, 1-((8aS)-6-chloro-4-fluoro-5-(2-fluoro-6-hydroxyphenyl)-8a,9,11,12-tetrahydropyrazino[2′,1′:3,4] [1,4]oxazepino[5,6,7-de]quinazolin-10(8H)-yl)prop-2-en-1-one, reference compound] returned a half-life in “Half life in rat blood” of 12 min. The same molecule had an apical-to-basolateral permeability (Papp A→B) in series [3] of 5.8 ×10⁻⁶ cm/s. Besides, the clearance in series [4] (in vivo) was 962 mL/min/kg. Moreover, the bioavailability in series [4] (in vivo, po) amounted to 0%.

In general, IC50 refers to the point on the concentration scale where inhibition reaches its midpoint. Broadly, the Papp A→B is the apparent permeability from the apical to the basolateral side of a cell layer. By half-life is commonly meant how long it takes for the measured level to halve. In general, bioavailability refers to the share of a dose that reaches the circulation, judged against a reference dose that is usually intravenous. High values mean much systemic uptake, low ones little systemic uptake.
